Measurements reported in ChEMBL document CHEMBL3638794, “Indazole compounds useful as ketohexokinase inhibitors” (2014).

Target: T1, Ketohexokinase (Homo sapiens, UniProt P50053)
T1 sequence (P50053 whole entry): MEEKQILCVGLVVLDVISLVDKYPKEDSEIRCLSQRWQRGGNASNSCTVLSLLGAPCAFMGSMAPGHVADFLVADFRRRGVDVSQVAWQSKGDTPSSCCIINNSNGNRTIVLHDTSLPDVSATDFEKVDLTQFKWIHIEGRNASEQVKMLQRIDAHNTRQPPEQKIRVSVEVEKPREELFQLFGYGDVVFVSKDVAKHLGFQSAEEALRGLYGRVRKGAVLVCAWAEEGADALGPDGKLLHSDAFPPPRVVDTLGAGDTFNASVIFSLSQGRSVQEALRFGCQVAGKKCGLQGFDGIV
Test: Enzyme Assay: An enzymatic assay was developed to measure KHK-mediated conversion of D-fructose to Fructose-1-P (F-1-P) using High Throughput Mass Spectroscopy (HTMS) as a means of product detection. […] The assay was carried out in 384-well plate format.

IC50: 2.05 µM
Compound: CSc1nn(-c2ccc(Br)cc2)c2cc(OC3CCNCC3)ccc12
